In patent publication US4137322A, “ML-236B carboxylic acid derivatives and their use as antihyperlipemic agents” (Sankyo Company Limited, priority 1976, dated 1979):
Where a name gives a salt, the structure may show the parent alone.

How the values were obtained:
cholesterol biosynthesis = experiment: Inhibition of cholesterol biosynthesis; format: biochemical
[1] = system: serum cholesterol in rats; experiment: Lowering activity of blood cholesterol in rats; format: in vivo, rat; settings: rats, oral, after 18 hours
Experimental: A lowering activity of blood cholesterol in rats was assayed on rats. The test was to orally administer a test sample suspended in water, collect a blood sample after 18 hours and determine a cholesterol level in serum by a conventional method.

[2] = biological target: T1, 3-hydroxy-3-methylglutaryl-CoA reductase (Rattus norvegicus, UniProt P51639); experiment: Inhibition of 3-hydroxy-3-methylglutaryl-CoA reductase; format: biochemical; settings: enzyme: microsome of rat liver; read-out: Concentration to inhibit 50% of 3-hydroxy-3-methylglutaryl-CoA reductase (converted)
T1 construct: Employed as an enzyme microsome of rat liver; from tissue; host or cells: rat liver microsomes
T1 sequence (P51639 1-887): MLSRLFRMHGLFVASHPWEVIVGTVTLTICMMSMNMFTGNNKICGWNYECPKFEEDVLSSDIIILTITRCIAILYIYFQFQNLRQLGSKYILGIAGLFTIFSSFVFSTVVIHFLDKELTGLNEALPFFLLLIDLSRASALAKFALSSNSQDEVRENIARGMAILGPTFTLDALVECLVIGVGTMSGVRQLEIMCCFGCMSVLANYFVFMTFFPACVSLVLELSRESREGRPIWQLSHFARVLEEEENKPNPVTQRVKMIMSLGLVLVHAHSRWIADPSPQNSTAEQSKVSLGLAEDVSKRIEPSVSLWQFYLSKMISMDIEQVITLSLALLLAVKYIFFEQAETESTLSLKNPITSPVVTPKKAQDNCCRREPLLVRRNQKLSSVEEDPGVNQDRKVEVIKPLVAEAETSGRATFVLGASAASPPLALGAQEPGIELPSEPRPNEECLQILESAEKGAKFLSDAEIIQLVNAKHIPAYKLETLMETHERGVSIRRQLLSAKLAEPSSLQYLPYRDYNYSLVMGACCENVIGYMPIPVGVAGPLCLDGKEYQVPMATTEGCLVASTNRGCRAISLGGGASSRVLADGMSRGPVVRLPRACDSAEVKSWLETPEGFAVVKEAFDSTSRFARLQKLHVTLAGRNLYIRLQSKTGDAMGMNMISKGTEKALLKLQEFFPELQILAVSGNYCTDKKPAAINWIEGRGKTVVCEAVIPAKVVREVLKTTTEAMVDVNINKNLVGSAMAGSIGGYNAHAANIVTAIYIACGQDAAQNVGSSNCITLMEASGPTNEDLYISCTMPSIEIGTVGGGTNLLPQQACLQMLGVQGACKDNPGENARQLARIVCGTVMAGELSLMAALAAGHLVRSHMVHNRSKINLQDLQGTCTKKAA
Source text: Inhibition activity of cholesterol biosynthesis [determined according to the method disclosed in J. Biol. Chem., 234, 2835 (1959)] and inhibition activity on 3-hydroxy-3-methylglutaryl-CoA reductase [determined according to the method disclosed in Anal. Biochem., 31, 383 (1969)] of these compounds are summarized in Table 1.
*Employed as an enzyme microsome of rat liver.

Rat = experiment: Acute toxicity in rat; settings: aqueous suspension
Experimental: (§1) Acute toxicity of ML-236B carboxylic acid derivatives (I) was determined in oral and intraperitoneal administration (both as an aqueous suspension).

[3] = system: total serum cholesterol in beagle dogs; experiment: Lowering activity of blood cholesterol in beagle dogs; format: in vivo, beagle dog; settings: beagle dogs, oral twice per day, 5 days
Source text: The test was to orally administer an encapsulated test sample twice per day, in the morning (9 o'clock) and evening (16 o'clock), for continuous 5 days, collect a blood sample in the morning after 5 days and determine a total cholesterol level in serum by a conventional method.

Mouse = experiment: Acute toxicity in mouse; settings: aqueous suspension
Experimental: as §1

Acute toxicity in rat = settings: in vivo, ip, LD50, rat, aqueous suspension
Experimental: as §1

Acute toxicity in mouse = settings: in vivo, ip, LD50, mouse, aqueous suspension
Experimental: as §1

[4] = p.o., listed as ML-236B Na salt

For `CCC(C)C(=O)OC1CCC=C2C=CC(C)C(CCC(O)CC(O)CC(=O)O)C21` (centres unmarked) [Arginine, Arginine salt of ML-236B carboxylic acid], the “Concentration to inhibit 50% of cholesterol biosynthesis” value (cholesterol biosynthesis) was 0.007 µg/mL, the “Lowering rate of serum cholesterol” value ([1]; 5 mg/kg, 5 mg/kg) was 19.6% and the “Lowering rate of serum cholesterol” value ([1]; 20 mg/kg, 20 mg/kg) was 24.1%. The IC50 [2] was 441 nM, the LD50 (Rat; i.p.) was > 500 mg/kg and the LD50 (Rat; p.o.) was > 5,000 mg/kg. For the same compound, the “Lowering rate of total serum cholesterol” value ([3]; 25 mg/kg/day) was 26%, the “Lowering rate of total serum cholesterol” value ([3]; 100 mg/kg/day) was 45% and the LD50 (Mouse; i.p.) was > 500 mg/kg. For the same compound, the LD50 (Mouse; p.o.) was > 5,000 mg/kg.

With `CCC(C)C(=O)OC1CCC=C2C=CC(C)C(CCC(O)CC(O)CC(=O)O)C21` (centres unmarked) [Lysine, Lysine salt of ML-236B carboxylic acid] the “Concentration to inhibit 50% of cholesterol biosynthesis” value (cholesterol biosynthesis) was 0.006 µg/mL, the “Lowering rate of serum cholesterol” value ([1]; 5 mg/kg, 5 mg/kg) was 16.9% and the “Lowering rate of serum cholesterol” value ([1]; 20 mg/kg, 20 mg/kg) was 23.8%. For the same compound, the LD50 (Rat; i.p.) was > 500 mg/kg, the LD50 (Rat; p.o.) was > 5,000 mg/kg and the “Lowering rate of total serum cholesterol” value ([3]; 25 mg/kg/day) was 24%. For the same compound, the “Lowering rate of total serum cholesterol” value ([3]; 100 mg/kg/day) was 44%, the LD50 (Mouse; i.p.) was > 500 mg/kg and the LD50 (Mouse; p.o.) was > 5,000 mg/kg.

With `CCC(C)C(=O)OC1CCC=C2C=CC(C)C(CCC(O)CC(O)CC(=O)O)C21` (centres unmarked) [Na, Sodium ML-236B carboxylate] the “Concentration to inhibit 50% of cholesterol biosynthesis” value (cholesterol biosynthesis) was 0.006 µg/mL, the inhibition in vivo at 5 mg/kg ([1]; Rattus norvegicus, po, 18 h, 5 mg/kg, read-out: Lowering rate of serum cholesterol) was 20.6% and the inhibition in vivo at 20 mg/kg ([1]; Rattus norvegicus, po, 18 h, 20 mg/kg, read-out: Lowering rate of serum cholesterol) was 23.1%. For the same compound, the IC50 [2] was 392 nM, the LD50 (Rat; [4]) was > 2,000 mg/kg and the LD50 (Acute toxicity in rat) was > 500 mg/kg. For the same compound, the inhibition in vivo at 25 mg/kg/day ([3]; Canis lupus familiaris, po, 120 h, 25 mg/kg/day, read-out: Lowering rate of total serum cholesterol) was 24%, the inhibition in vivo at 100 mg/kg/day ([3]; Canis lupus familiaris, po, 120 h, 100 mg/kg/day, read-out: Lowering rate of total serum cholesterol) was 47% and the LD50 (Acute toxicity in mouse) was > 500 mg/kg. The LD50 (Mouse; [4]) was > 2,000 mg/kg.
